In US9758485B2, “Compounds for controlling arthropods” (priority 2013, dated 2017) one finds chromatographic logP, efficacy and pest or weed control data, which are given here for one compound.

Where two headings read alike, the source gives them in different places.

A short description of data set [1]: logP determination by HPLC on a reversed-phase column (C18), EEC Directive 79/831 Annex V.A8. It counts as physicochemical.
In a further data set the test system is Ctenocephalides felis. The data set can be described thus: Ctenocephalides felis - in vitro contact tests with adult cat fleas. Conditions: application rate 5 μg/cm^2 (=500 g/ha), after 48 h (dead or moribund). It counts as in vivo. The procedure, abridged: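 Efficacy, as share of dead or moribund adult Ctenocephalides felis, read 48 h after placing 5-10 fleas in tubes coated by acetone solution (5 μg/cm^2 at 900 ppm). Incubation horizontal at room temperature, ambient humidity; immobile or uncoordinated fleas scored.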

For a further data set, the system named is Amblyomma hebraeum. As to the kind of experiment: Amblyomma hebraeum test (tick nymphs, immersion). It counts as in vivo. The settings on record: application rate 100 ppm; tick nymphs immersed for one minute; kill after 42 days. Summed up:
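Mortality (%) is read 42 days post-treatment, where 0% means no ticks and 100% all ticks killed. Nymphs were dipped for 1 min into the test dilution (DMSO stock diluted with water) and afterwards stored on filter paper under controlled climate.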

The next data set concerns Boophilus microplus. The data set can be described thus: Boophilus microplus - injection test. It counts as in vivo. The settings on record: Rhipicephalus microplus, 168 h; application rate 20 μg/animal; injected into engorged adult female ticks; laying of fertile eggs, after 7 days; read-out: efficacy. Summed up: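 Compound dissolved in DMSO (10 mg per 0.5 ml, then diluted with DMSO to test concentration); 1 μl injected into the abdomen of 5 engorged adult female ticks, which are then held in a climate-controlled room. Efficacy judged after 7 days by laying of fertile eggs.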

The subject of data set [2] is Boophilus microplus Parkhurst strain, SP-resistant. As to the kind of experiment: Boophilus microplus - dip test. It counts as in vivo. Conditions: application rate 100 ppm; dip of engorged adult female ticks; laying of fertile eggs, after 7 days. The procedure, abridged: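 Efficacy reflects suppression of fertile egg laying: 0% means all eggs fertile, 100% none, read at 7 days, doubtful eggs kept ~42 days for larval hatch. Treatment was a complete dip of 8–10 engorged adult female ticks (SP-resistant Parkhurst strain) in a water dilution of a DMSO stock.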

The subject of another data set is Lucilia cuprina. The data set can be described thus: Lucilia cuprina test. It counts as in vivo. The settings on record: Lucilia cuprina, 48 h; application rate 100 ppm; L1 larvae in minced horsemeat; kill after 2 days; read-out: efficacy. Summed up: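 Mortality (%) of first-instar blowfly larvae, about 20 per vessel, recorded 2 days after exposure to compound-treated minced horsemeat. Compound dissolved in dimethyl sulphoxide, then water-diluted to the desired concentration.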

The next data set relates to Musca domestica. As to the kind of experiment: Musca domestica test. It counts as in vivo. The settings on record: application rate 100 ppm; adult houseflies; kill after 2 days. Summed up:
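Ten adult Musca domestica are exposed to a sugar-soaked sponge carrying the water-diluted DMSO formulation; kill in % is read 2 days later.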

In a further data set the test system is Myzus persicae. The data set can be described thus: Myzus persicae - spray test. The settings on record: application rate 100 g/ha; Chinese cabbage leaf discs; after 6 days. It counts as in vivo. As for the experimental part:
Myzus persicae—Spray Test
Solvent: 78 parts by weight of acetone and 1.5 parts by weight of dimethylformamide
(§1) Emulsifier: alkylaryl polyglycol ether
(§2) To produce an appropriate active ingredient formulation, 1 part by weight of active ingredient is dissolved using the specified parts by weight of solvent and made up with water containing an emulsifier concentration of 1000 ppm until the desired concentration is attained. To produce further test concentrations, the preparation is diluted with emulsifier-containing water.
Discs of Chinese cabbage leaves (Brassica pekinensis) infested by all stages of the green peach aphid (Myzus persicae) are sprayed with an active ingredient formulation of the desired concentration.
After 6 days, efficacy in % is determined. 100% means that all the aphids have been killed; 0% means that none of the aphids have been killed.

Another data set has as its system Phaedon cochleariae. The data set can be described thus: Phaedon cochleariae - spray test. It counts as in vivo. Conditions: Phaedon cochleariae, foliar, 168 h; application rate 100 g/ha; larvae on Chinese cabbage leaf discs; after 7 days; read-out: efficacy. As for the experimental part: Phaedon cochleariae—Spray Test
(§3) Solvent: 78.0 parts by weight of acetone and 1.5 parts by weight of dimethylformamide
as §1, §2
Discs of Chinese cabbage leaves (Brassica pekinensis) are sprayed with an active ingredient formulation of the desired concentration and, after drying, populated with larvae of the mustard beetle (Phaedon cochleariae).
After 7 days, efficacy in % is determined. 100% means that all the beetle larvae have been killed; 0% means that no beetle larvae have been killed.

The subject of a further data set is Spodoptera frugiperda. The data set can be described thus: Spodoptera frugiperda - spray test. It counts as in vivo. The settings on record: foliar, 168 h, application rate 100 g/ha, caterpillars on maize leaf discs, after 7 days, read-out: efficacy. On the procedure:
Spodoptera frugiperda—Spray Test
as §3, §1, §2
Leaf discs of maize (Zea mays) are sprayed with an active ingredient formulation of the desired concentration and, after drying, populated with caterpillars of the armyworm (Spodoptera frugiperda).
After 7 days, efficacy in % is determined. 100% means that all the caterpillars have been killed; 0% means that no caterpillars have been killed.

Another data set relates to Tetranychus urticae. The data set can be described thus: Tetranychus urticae - spray test, OP-resistant. It counts as in vivo. The settings on record: foliar, 144 h, application rate 100 g/ha, bean leaf discs, after 6 days, read-out: efficacy. As for the experimental part: Tetranychus urticae—Spray Test, OP-Resistant
as §3, §1, §2
Discs of bean leaves (Phaseolus vulgaris) infested by all stages of the greenhouse red spider mite (Tetranychus urticae) are sprayed with an active ingredient formulation of the desired concentration.
After 6 days, efficacy in % is determined. 100% means that all the spider mites have been killed; 0% means that none of the spider mites have been killed.

As to `Cc1cc(C(F)(C(F)(F)F)C(F)(F)F)cc(C)c1-n1cc(-c2ccc(Cl)c(C(=O)NC3CC3)c2)cn1` [I-T3-1, 2-chloro-N-cyclopropyl-5-[1-[2,6-dimethyl-4-[1,2,2,2-tetrafluoro-1-(trifluoromethyl)ethyl]phenyl]pyrazol-4-yl]benzamide], the chromatographic logP was found to be 4.36 in [1] (reversed-phase HPLC column (C18), HPLC, reversed-phase C18, acetonitrile/water with formic acid, 55° C., read-out: logP); 4.4 in data set [1] (reversed-phase HPLC column (C18), HPLC-MS method a), Table I-T3; read-out: logP^a)); 4.4 in [1] (reversed-phase HPLC column (C18), HPLC-MS method a); read-out: logP^a)). The efficacy (in the data set with Ctenocephalides felis; with Amblyomma hebraeum; in data set [2]; with Musca domestica; in the data set with Myzus persicae) was 100% each time. In addition, the pest or weed control at 0.02 mg with Boophilus microplus was 100%. Further, in the data set with Lucilia cuprina, the pest or weed control at 100 ppm came to 100%. The pest or weed control at 100 g/ha with Phaedon cochleariae, in the data set with Spodoptera frugiperda and in the data set on Tetranychus urticae was 100% each time.
